According to patent US20250152564A1, “PROPYLENE KETONE-CONTAINING BIOINHIBITOR, PREPARATION METHOD THEREFOR, AND USE THEREOF” (SHANGHAI HANSOH BIOMEDICAL CO., LTD., priority 2022, published 2025):

How the values were obtained:
[1] = molecular target: FGFR1 (Homo sapiens (Human), UniProt P11362); assay: TR-FRET kinase inhibition assay, FGFR1; format: biochemical; conditions: ATP Km concentration (30 μM)
In short: (§1)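 Kinase-domain fragments in 50 mM HEPES pH 7.5 with 10 mM MgCl2, ATP at Km plus peptide substrate; 60 min reaction at room temperature, then EDTA/Eu-anti-phosphotyrosine (PT66) detection for 60 min (30 min for V564F). 11-point 3-fold dilutions from 1000 nM; IC50 from four-parameter fit of 665/620 nm ratio inhibition.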

[2] = molecular target: FGFR2 (Homo sapiens (Human), UniProt P21802); assay: TR-FRET kinase inhibition assay, FGFR2; format: biochemical; conditions: ATP Km concentration (30 μM)
In short: as §1

[3] = molecular target: FGFR3 (Homo sapiens (Human), UniProt P22607); assay: TR-FRET kinase inhibition assay, FGFR3; format: biochemical; conditions: ATP Km concentration (30 μM)
Experimental: To measure the IC50 values of the compounds against FGFR1, FGFR2, FGFR3, FGFR4, and FGFR2 V564F at ATP Km concentrations by TR-FRET method.
TR-FRET (time-resolved fluorescence resonance energy transfer) method was used to detect the inhibitory activity of the compounds on FGFR1, FGFR2, FGFR3, FGFR4, and FGFR2 V564F kinase region fragments. The highest detection concentration of the compounds in 5 kinase experiments was 1000 nM, which was diluted in 3 folds, with a total of 11 concentrations (1000 nM to 0.017 nM). A kinase buffer (50 mM HEPES pH 7.5, 1 mM EGTA, 10 mM MgCl2, 2 mM DTT, and 0.01% Tween-20) was used to prepare 4× enzyme solution, 4× compound solutions diluted in gradient, and a 2×ATP/Peptide substrate solution. To a 384-well plate, 2.5 μL of enzyme solution and 2.5 μL of diluted […] compound solution were added, and 5 μL of 2×ATP/Peptide substrate solution was then added. After reacting at room temperature for 60 minutes for FGFR1, FGFR2, FGFR3, and FGFR2 V564F kinases, and 120 minutes for FGFR4 kinase, 10 μL of a 2× termination and detection mixed liquid prepared with 1×LANCE detection buffer with an EDTA concentration of 20 mM and a Europium-anti-phosphotyrosine (PT66) concentration of 2 nM was added to each well of the plate. After reacting at room temperature for 60 minutes for FGFR1, FGFR2, FGFR3, and FGFR4, and 30 minutes for FGFR2 V564F, the fluorescence signal value in each well of the plate was measured by a microplate reader.
1) Inhibition rate (%): Calculation was performed on the raw data (665 nm/620 nm reading ratio) according to the following formula to obtain the inhibition rate. Inhibition rate %=[(mean value in positive control well−value in sample well)/(mean value in positive control well−mean value in negative control well)]×100, wherein the positive control well was a reaction well without a compound […], and the negative control well was a reaction wells without an enzyme.
2) Curve fitting: Log(inhibitor) vs. response—Variable slope (four parameters) in GraphPad Prism 6 was used for fitting equation analysis of the compound concentration and the corresponding inhibition rate, and the curve was fitted to obtain the IC50 values of the compounds.

[4] = molecular target: FGFR2 V564F (Homo sapiens (Human), UniProt P21802, V564F); assay: TR-FRET kinase inhibition assay, FGFR2 V564F; format: biochemical; conditions: ATP Km concentration (20 μM)
In short: as §1

[5] = tested on: NCI-H716 cells; assay: CellTiter-Glo cell proliferation inhibition, NCI-H716; format: cell-based; conditions: Homo sapiens, 72 h, read-out: NCI-H716 cell proliferation inhibition rate IC50
In short: (§2)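 Cells plated, compound added next day as 9-point 3-fold series from 1000 nM to 0.15 nM, incubated 72 h. Viability by CellTiter-Glo luminescence; IC50 from four-parameter variable-slope fit of percent inhibition.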

[6] = tested on: BaF3 FGFR2-BICC1 V564F cells; assay: CellTiter-Glo cell proliferation inhibition, BaF3 FGFR2-BICC1 V564F; format: cell-based; conditions: Mus musculus, 72 h, read-out: BaF3 FGFR2-BICC1 V564F inhibitory activity IC50
In short: as §2

[7] = Pharmacokinetic experiment in SD rats after oral administration; format: in vivo; conditions: 5 mg/kg, plasma; for AUC(0-t) / AUC(0-inf) / half-life / MRT / Cmax: male, Sprague-Dawley (SD), rat, po; for AUC(0-t): read-out: Area under the curve AUC0-t; for AUC(0-inf): read-out: Area under the curve AUC0-∞; for half-life: read-out: Half-life t1/2 (converted); for MRT: read-out: Mean residence time MRT; for Cmax: read-out: Plasma concentration Cmax; for Time to peak tmax: p.o.

FGFR2 V564F, sequence (P21802 481-770 V564F): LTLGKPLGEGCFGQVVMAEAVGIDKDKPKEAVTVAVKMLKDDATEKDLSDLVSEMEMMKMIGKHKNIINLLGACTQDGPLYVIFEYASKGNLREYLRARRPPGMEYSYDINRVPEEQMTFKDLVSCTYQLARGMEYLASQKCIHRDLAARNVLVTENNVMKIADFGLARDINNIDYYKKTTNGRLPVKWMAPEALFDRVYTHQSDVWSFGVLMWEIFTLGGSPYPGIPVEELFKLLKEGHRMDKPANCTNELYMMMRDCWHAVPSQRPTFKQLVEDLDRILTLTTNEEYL
FGFR2, sequence (P21802 481-770): as the sequence (P21802 481-770 V564F) above, with F84V counted along it
FGFR1, sequence (P11362 478-767): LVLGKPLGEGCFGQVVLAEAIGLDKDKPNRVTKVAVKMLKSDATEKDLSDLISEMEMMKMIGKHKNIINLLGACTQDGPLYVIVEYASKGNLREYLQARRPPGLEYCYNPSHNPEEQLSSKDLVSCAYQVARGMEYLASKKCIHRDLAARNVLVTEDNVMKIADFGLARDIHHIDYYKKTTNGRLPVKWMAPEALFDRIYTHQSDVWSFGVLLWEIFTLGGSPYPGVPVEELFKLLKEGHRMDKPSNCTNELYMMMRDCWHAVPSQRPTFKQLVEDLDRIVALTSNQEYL
FGFR3, sequence (P22607 472-761): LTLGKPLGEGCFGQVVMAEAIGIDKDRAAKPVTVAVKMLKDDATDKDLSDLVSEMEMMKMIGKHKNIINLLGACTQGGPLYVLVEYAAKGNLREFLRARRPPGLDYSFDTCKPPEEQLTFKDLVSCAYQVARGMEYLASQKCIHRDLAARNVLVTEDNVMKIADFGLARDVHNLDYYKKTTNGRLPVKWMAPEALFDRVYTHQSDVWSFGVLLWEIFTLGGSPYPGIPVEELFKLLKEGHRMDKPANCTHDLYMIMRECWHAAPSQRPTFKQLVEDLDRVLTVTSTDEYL

| Compound | IC50 [1] | IC50 [2] | IC50 [3] | IC50 [4] | IC50 [5] | IC50 [6] | AUC(0-t) [7] | AUC(0-inf) [7] | half-life [7] | MRT [7] | Cmax [7] | Time to peak tmax [7] |
| --- | --- | --- | --- | --- | --- | --- | --- | --- | --- | --- | --- | --- |
| C=CC(=O)N1CC[C@H](n2nc(C#Cc3ccc4cn(C)nc4c3)c3c(N)ncc(C(C)=O)c32)C1 [Example 82, (S)-1-(3-(7-acetyl-4-amino-3-((2-methyl-2H-indazol-6-yl)alkynyl)-1H-pyrazolo[4,3-c]pyridin-1-yl)pyrrolidine-1-methyl)prop-2-en-1-one] | 1.4 nM | 0.3 nM | 0.5 nM | 0.3 nM | 0.21 nM | 0.5 nM | 2800 ng·h/mL | 2910 ng·h/mL | 1.4 h | 3.05 h | 677 ng/mL | 1 h |
| C=CC(=O)N1CC[C@H](n2nc(C#Cc3ccc4c(c3)ncn4C3CC3)c3c(N)ncc(C(C)=O)c32)C1 [Example 37, (S)-1-(3-(7-acetyl-4-amino-3-((1-cyclopropyl-1H-benzo[d]imidazol-5-yl)ethynyl)-1H-pyrazolo[4,3-c]pyridin-1-yl)pyrrolidin-1-yl)prop-2-en-1-one] | 2.4 nM | 1 nM | 1.1 nM | 0.5 nM | 0.95 nM | 2 nM |  |  |  |  |  |  |
| C=CC(=O)N1CC[C@H](n2nc(C#Cc3ccc4ccnn4c3)c3c(N)ncc(C(=O)CC)c32)C1 [Example 72, (S)-1-(3-(4-amino-7-propionyl-3-(pyrazolo[1,5-a]pyridine-6-ethynylene)-1H-pyrazolo[4,3-c]pyridin-1-yl)pyrrolidine-1-methyl)prop-2-en-1-one] | 7.3 nM | 1.4 nM | 1.6 nM | 2.1 nM | 1.97 nM | 1.5 nM | 1150 ng·h/mL | 1150 ng·h/mL | 0.6 h | 2.26 h | 298 ng/mL | 0.5 h |
| C=CC(=O)N1CC[C@H](n2nc(C#Cc3ccc4c(c3)ncn4C3CC3)c3c(N)ncc(C(=O)C4CC4)c32)C1 [Example 38, (S)-1-(3-(4-amino-7-(cyclopropanecarbonyl)-3-((1-cyclopropyl-1H-benzo[d]imidazol-5-yl)ethynyl)-1H-pyrazolo[4,3-c]pyridin-1-yl)pyrrolidin-1-yl)prop-2-en-1-one] | 2.8 nM | 1.6 nM |  | 1 nM | 0.91 nM | 1.9 nM | 2230 ng·h/mL | 2270 ng·h/mL | 1.1 h | 2.99 h | 604 ng/mL | 2 h |
| C=CC(=O)N1CC[C@H](n2nc(C#Cc3ccc4cn(CC)nc4c3)c3c(N)ncc(C(C)=O)c32)C1 [Example 85, (S)-1-(3-(7-acetyl-4-amino-3-((2-ethyl-2H-indazol-6-yl)alkynyl)-1H-pyrazolo[4,3-c]pyridin-1-yl)pyrrolidine-1-methyl)prop-2-en-1-one] | 2.1 nM | 0.4 nM |  | 0.5 nM | 0.96 nM | 0.4 nM | 1490 ng·h/mL | 1490 ng·h/mL | 0.5 h | 2.39 h | 394 ng/mL | 0.5 h |
| C=CC(=O)N1CC[C@H](n2nc(C#Cc3ccc4ccnn4c3)c3c(N)ncc(C(C)=O)c32)C1 [Example 71, (S)-1-(3-(7-acetyl-4-amino-3-(pyrazolo[1,5-a]pyridine-6-ethynylene)-1H-pyrazolo[4,3-c]pyridin-1-yl)pyrrolidine-1-methyl)prop-2-en-1-one] | 7.2 nM | 2 nM | 2.7 nM | 2.8 nM | 1.5 nM | 2.2 nM |  |  |  |  |  |  |
| C=CC(=O)N1CC[C@H](n2nc(C#Cc3ccc4c(c3)ncn4C)c3c(N)ncc(C(=O)CC)c32)C1 [Example 64, (S)-1-(3-(4-amino-3-((1-methyl-1H-benzo[d]imidazol-5-yl)ethynyl)-7-propionyl-1H-pyrazolo[4,3-c]pyridin-1-yl)pyrrolidin-1-yl)prop-2-en-1-one] | 6.3 nM | 1.4 nM |  | 0.6 nM | 1.8 nM | 1.9 nM | 3400 ng·h/mL | 3430 ng·h/mL | 0.9 h | 2.58 h | 866 ng/mL | 2 h |
